Among the targets are FLT3 (Homo sapiens, UniProt P36888); GSK3A (Homo sapiens, UniProt P49840); EPHB4 (Homo sapiens, UniProt P54760); PAK3 (Homo sapiens, UniProt O75914); EGFR(S752-I759del) (Homo sapiens, UniProt P00533, DEL752-759); FGFR3 (Homo sapiens, UniProt P22607); BRAF(V600E) (Homo sapiens, UniProt P15056, V600E); PIK3C2B (Homo sapiens, UniProt O00750); HIPK4 (Homo sapiens, UniProt Q8NE63); FYN (Homo sapiens, UniProt P06241); ULK2 (Homo sapiens, UniProt Q8IYT8); PLK2 (Homo sapiens, UniProt Q9NYY3); MAP4K3 (Homo sapiens, UniProt Q8IVH8); DAPK3 (Homo sapiens, UniProt O43293); CLK2 (Homo sapiens, UniProt P49760); ERBB3 (Homo sapiens, UniProt P21860); CSNK1A1 (Homo sapiens, UniProt P48729); PLK4 (Homo sapiens, UniProt O00444).

What all share (assay): biochemical
Common to all, as to set-up: KINOMEscan active-site competition binding, percent of control (100 = no competition)
Holding throughout (details): competition binding, percent control

The next assay has as its target T1, ASK1 (Homo sapiens, UniProt Q99683).
T1 construct: gene MAP3K5

Assay [1] addresses T2, JAK1(JH2domain-pseudokinase) (Homo sapiens, UniProt P23458).
T2 construct: JH2domain-pseudokinase

A further assay has as its target T3, IKK-alpha (Homo sapiens, UniProt O15111).
T3 construct: gene CHUK

For assay [2], the target named is T4, ABL1(E255K)-phosphorylated (Homo sapiens, UniProt P00519, E255K).
T4 construct: phosphorylated

The target in another assay is T5, PFCDPK1(P.falciparum) (Plasmodium falciparum, UniProt P62344).
T5 construct: gene CDPK1

Our source for the remaining binding values is article PMC4770715, “LIM kinase inhibitors disrupt mitotic microtubule organization and impair tumor cell proliferation” (Oncotarget, 2015).

MAP4K3, sequence (Q8IVH8 whole entry): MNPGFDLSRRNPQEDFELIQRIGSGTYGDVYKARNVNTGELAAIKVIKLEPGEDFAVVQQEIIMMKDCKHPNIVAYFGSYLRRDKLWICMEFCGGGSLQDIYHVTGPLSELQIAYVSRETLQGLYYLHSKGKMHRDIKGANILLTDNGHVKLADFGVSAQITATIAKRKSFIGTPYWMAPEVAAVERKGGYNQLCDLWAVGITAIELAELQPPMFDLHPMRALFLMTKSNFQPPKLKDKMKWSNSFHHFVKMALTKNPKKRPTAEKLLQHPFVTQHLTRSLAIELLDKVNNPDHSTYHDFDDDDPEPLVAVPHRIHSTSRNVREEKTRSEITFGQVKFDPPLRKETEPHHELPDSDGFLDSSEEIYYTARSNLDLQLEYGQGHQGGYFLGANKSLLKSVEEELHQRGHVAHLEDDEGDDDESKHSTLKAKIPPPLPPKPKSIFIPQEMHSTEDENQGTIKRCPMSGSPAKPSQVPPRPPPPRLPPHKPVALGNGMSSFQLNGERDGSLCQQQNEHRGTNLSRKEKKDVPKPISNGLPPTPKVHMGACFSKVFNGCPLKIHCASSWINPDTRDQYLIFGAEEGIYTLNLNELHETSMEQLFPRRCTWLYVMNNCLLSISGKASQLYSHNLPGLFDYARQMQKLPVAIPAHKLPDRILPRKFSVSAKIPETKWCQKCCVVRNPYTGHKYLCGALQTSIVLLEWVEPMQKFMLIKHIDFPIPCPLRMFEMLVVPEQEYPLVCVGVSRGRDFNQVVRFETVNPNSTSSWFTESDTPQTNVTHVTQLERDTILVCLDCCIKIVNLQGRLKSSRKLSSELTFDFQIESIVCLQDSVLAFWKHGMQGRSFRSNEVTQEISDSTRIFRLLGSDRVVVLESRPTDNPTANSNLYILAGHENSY
T2 sequence (P23458 whole entry): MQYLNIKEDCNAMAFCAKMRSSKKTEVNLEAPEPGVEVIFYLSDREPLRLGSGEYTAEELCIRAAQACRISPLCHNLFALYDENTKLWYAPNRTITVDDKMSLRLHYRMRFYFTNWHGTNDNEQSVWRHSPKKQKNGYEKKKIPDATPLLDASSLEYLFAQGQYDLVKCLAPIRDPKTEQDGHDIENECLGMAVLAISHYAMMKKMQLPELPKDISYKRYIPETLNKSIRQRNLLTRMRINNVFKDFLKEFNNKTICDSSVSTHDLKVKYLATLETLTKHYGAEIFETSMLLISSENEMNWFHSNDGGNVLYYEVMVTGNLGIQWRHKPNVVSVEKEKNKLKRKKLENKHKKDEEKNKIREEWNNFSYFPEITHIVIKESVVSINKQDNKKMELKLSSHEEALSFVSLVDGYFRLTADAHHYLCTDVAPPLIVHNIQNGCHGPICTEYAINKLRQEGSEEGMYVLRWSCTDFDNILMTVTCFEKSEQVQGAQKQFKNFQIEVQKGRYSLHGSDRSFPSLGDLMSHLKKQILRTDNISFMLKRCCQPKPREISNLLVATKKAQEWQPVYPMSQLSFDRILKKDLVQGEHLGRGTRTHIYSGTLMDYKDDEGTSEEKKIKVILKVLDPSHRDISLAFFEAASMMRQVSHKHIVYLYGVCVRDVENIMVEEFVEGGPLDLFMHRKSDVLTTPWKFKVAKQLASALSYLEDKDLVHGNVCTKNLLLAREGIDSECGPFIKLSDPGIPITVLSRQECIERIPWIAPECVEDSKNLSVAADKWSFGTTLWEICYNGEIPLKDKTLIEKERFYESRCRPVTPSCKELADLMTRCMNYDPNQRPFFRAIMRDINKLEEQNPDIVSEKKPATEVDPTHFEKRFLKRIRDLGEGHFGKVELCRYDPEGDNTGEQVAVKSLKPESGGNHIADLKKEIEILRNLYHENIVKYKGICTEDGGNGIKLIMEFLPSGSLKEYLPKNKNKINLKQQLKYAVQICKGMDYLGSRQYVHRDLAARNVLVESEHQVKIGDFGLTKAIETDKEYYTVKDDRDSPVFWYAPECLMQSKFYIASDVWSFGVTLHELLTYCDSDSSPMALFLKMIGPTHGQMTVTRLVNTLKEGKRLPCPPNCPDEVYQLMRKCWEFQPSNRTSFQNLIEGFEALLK
HIPK4, sequence (Q8NE63 whole entry): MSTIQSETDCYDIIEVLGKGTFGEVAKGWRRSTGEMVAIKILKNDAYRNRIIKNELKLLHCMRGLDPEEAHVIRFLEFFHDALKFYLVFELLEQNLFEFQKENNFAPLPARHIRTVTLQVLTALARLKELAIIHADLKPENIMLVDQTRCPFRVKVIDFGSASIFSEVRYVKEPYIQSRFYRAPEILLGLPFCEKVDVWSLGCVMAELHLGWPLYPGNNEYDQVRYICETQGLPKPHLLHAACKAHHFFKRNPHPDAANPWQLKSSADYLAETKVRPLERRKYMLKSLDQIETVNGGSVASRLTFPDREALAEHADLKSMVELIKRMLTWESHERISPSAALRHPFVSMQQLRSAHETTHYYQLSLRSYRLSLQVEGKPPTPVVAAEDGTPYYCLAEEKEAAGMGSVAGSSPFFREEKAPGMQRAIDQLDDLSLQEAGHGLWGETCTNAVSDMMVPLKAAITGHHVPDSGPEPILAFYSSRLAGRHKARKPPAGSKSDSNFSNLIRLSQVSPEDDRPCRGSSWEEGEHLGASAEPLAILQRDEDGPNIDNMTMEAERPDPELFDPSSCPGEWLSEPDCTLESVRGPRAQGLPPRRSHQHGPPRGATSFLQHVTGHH
T5 sequence (P62344 whole entry): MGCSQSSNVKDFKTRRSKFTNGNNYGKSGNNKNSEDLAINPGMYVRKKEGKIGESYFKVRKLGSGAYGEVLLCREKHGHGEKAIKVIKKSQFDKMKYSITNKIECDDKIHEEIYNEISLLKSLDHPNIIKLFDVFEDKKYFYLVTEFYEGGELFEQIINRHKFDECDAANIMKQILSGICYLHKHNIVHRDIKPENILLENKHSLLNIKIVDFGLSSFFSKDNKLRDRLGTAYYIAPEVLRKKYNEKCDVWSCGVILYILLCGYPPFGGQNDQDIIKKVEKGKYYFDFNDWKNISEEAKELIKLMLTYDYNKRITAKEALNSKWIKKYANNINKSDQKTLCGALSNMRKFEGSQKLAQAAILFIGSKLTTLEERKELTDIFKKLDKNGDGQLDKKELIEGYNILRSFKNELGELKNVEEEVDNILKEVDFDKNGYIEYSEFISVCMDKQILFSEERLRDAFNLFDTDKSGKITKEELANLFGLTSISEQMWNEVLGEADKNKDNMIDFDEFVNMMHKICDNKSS
PLK2, sequence (Q9NYY3 whole entry): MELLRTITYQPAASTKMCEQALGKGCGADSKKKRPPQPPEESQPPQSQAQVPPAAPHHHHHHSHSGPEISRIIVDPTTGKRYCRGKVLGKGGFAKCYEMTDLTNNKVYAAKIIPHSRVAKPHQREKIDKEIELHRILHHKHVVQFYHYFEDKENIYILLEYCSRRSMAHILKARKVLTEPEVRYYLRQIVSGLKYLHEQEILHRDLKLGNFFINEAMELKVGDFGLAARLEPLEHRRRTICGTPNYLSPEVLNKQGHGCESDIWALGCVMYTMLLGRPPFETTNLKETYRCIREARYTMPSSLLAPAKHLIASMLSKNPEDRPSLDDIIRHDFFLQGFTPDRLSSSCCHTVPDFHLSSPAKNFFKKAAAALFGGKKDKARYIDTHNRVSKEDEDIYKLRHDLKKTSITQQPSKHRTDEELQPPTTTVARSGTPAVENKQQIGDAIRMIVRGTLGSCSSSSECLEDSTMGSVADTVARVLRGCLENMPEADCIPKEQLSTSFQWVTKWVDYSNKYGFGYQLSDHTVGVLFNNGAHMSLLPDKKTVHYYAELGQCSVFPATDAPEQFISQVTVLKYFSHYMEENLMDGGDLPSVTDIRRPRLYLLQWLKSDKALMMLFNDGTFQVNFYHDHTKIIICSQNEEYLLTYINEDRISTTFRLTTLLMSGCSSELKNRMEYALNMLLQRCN
DAPK3, sequence (O43293 whole entry): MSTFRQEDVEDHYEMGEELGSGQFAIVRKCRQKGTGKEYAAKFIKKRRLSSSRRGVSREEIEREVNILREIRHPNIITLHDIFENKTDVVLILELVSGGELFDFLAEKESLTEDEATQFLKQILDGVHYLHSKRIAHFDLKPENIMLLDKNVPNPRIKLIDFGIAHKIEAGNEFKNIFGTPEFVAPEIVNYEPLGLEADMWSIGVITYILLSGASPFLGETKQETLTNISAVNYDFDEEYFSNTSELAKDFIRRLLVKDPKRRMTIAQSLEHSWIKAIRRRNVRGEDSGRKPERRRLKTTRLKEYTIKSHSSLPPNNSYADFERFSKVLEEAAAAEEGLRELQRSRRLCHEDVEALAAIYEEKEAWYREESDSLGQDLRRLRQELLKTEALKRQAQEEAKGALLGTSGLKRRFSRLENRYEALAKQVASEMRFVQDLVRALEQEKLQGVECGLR
GSK3A, sequence (P49840 whole entry): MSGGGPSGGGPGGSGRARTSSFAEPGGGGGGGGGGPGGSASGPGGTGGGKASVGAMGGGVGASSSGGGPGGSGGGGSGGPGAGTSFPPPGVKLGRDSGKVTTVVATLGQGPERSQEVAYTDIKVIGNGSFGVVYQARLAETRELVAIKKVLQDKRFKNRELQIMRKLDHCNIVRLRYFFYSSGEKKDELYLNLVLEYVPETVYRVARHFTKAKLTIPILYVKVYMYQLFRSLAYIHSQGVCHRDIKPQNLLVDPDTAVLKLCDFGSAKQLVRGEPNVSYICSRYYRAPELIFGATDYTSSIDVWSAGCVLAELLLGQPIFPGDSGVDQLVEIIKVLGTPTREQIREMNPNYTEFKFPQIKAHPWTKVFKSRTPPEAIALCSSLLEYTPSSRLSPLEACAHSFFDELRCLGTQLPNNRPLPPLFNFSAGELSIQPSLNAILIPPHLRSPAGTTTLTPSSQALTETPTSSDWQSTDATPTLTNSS

As for `COc1ccc(-c2cnccc2-c2cnc(NC(=O)C(C)C)s2)c(C(F)(F)F)c1` [CRT0105446, N-{5-[3-(4-Methoxy-2-trifluoromethyl-phenyl)-pyridin-4-yl]-hiazol-2-yl}-isobutyramide], the remaining binding at 10 µM on ASK1 was 100%; at FLT3 it was 41%; on GSK3A, 56%; at EPHB4, 93%; on PAK3, 4.6%; at EGFR(S752-I759del), 84%. The remaining binding at 10 µM at FGFR3 was found to be 96%; at BRAF(V600E), 64%; at PIK3C2B it was 100%; at HIPK4, 75%; in assay [1], 92%; at IKK-alpha it was 89%. The remaining binding at 10 µM at FYN is 99%; at ULK2, 100%; in assay [2], 78%; at PLK2, 99%; at MAP4K3, 58%; on DAPK3 it was 83%. Besides, the remaining binding at 10 µM on CLK2 was determined as 78%; on ERBB3, 100%; at CSNK1A1 it was 100%; on PLK4, 89%; on PFCDPK1(P.falciparum) it was 30%.
Regarding `Cc1ccc(-c2cnccc2-c2cnc(Nc3ccc(O)cc3)s2)c(Cl)c1` [CRT0105950, 4-{5-[3-(2-Chloro-4-methyl-phenyl)-pyridin-4-yl]-thiazol-2-ylamino}-phenol], the remaining binding at 10 µM at ASK1 was determined as 100%; on FLT3 it was 0.55%; on GSK3A, 32%; on EPHB4, 82%; on PAK3, 4.1%; on EGFR(S752-I759del), 69%. The remaining binding at 10 µM is 4.8% on FGFR3; 83% at BRAF(V600E); 100% at PIK3C2B; 16% at HIPK4; 74% in assay [1]; 94% at IKK-alpha. Further, the remaining binding at 10 µM was determined as 49% on FYN; 20% on ULK2; 79% in assay [2]; 9% at PLK2; 18% at MAP4K3; 44% at DAPK3. For the same compound, the remaining binding at 10 µM on CLK2 came out at 0.45%; at ERBB3, 100%; at CSNK1A1, 88%; on PLK4 it was 43%; at PFCDPK1(P.falciparum), 17%.
